Paper PMC5520492, “Inhibition of DNA2 nuclease as a therapeutic strategy targeting replication stress in cancer cells” (Oncogenesis, 2017)
Entries after “also recorded” stand apart in the source; their conditions may differ.

Experiments:
hDNA2 [1] = target: T1, hDNA2 (Homo sapiens, UniProt P51530); assay: ATPase activity of hDNA2 (TLC); format: biochemical; details: inhibitor 10 µM, 100 nM hDNA2
T1 construct: made in house
T1 sequence (P51530 1-1060): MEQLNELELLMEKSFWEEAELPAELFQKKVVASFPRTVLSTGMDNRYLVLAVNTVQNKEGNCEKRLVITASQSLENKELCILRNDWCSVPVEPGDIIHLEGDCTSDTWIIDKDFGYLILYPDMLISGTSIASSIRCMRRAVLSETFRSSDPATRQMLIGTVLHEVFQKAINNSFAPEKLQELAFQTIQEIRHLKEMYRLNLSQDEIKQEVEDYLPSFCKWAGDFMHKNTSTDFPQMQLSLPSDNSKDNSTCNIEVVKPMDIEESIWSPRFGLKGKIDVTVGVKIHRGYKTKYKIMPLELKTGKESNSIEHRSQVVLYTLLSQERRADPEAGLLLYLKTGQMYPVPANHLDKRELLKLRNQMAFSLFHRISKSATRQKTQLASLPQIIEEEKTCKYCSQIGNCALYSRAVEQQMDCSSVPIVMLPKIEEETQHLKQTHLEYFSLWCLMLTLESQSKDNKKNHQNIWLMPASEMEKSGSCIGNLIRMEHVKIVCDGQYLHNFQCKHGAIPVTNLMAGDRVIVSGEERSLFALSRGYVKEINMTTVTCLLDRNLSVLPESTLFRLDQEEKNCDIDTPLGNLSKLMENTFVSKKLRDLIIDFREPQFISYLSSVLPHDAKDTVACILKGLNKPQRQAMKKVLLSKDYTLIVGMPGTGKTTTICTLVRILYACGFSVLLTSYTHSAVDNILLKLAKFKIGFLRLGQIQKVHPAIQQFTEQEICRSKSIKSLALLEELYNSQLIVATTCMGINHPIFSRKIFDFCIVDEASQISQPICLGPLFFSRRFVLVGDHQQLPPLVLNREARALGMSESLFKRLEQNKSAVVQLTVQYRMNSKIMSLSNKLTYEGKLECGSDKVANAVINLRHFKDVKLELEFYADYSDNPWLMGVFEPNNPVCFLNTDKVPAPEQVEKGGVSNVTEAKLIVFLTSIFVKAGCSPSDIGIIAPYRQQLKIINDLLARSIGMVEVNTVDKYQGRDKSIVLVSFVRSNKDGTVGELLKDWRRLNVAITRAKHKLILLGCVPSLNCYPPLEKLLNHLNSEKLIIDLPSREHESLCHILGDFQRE
Method: Figure S2. […] (a) Analysis of 5’ flap processing by hDNA2 in presence of the compounds at the indicated concentration. DNA2 (2.5 nM) was incubated with the Y DNA substrate (5 nM ends) and the indicated concentration of inhibitor. (b) Plots showing quantitation of the experiments shown in a. Plotted are the average data from three independent experiments with the error bars representing one standard deviation. (c) Analysis of dsDNA unwinding by BLM. BLM (4, 8 and 16 nM), RPA (100 nM) and internally radiolabelled dsDNA (0.5 nM ends) was incubated for 20 min at 37^ºC in presence of either DMSO or NSC-105808 (10 µM) and the products were resolved on a 1% agarose gel. (d) Plots showing quantitation of the experiments shown in c. Plotted are the average data from three independent experiments with the error bars representing one standard deviation. (e) Analysis of the degradation of a 2 kb internally labeled dsDNA (0.5 nM ends) by EXO1 (5 nM) in presence of NSC-105808 (10 µM). (f) Plot showing quantitation of the experiment in e. […] 100 nM hDNA2 was incubated with γ^32P-ATP in the presence of oligonucleotide ssDNA (200 nM) for 20 minutes at 37^ºC in presence of either DMSO or inhibitor (10 µM) and the products were resolved on a TLC plate. (h) Analysis of hDNA2 binding to DNA. […]

hDNA2 [2] = target: T1, hDNA2; assay: 5' flap processing by hDNA2; format: biochemical; details: DNA2 […], Y DNA substrate 5 nM ends
Method: Nuclease assays were performed in buffer R (20 mM Na-HEPES pH 7.5, 1 mM ATP, 0.1 mM DTT, 100 μg/ml bovine serum albumin, 0.05% Triton X-100, 2 mM MgCl2, 100 mM KCl) and contained 0.5 nM ends (2-kb substrate) or 5 nM ends (the ssDNA oligonucleotide PSOL6929) of DNA. Reactions containing Bloom syndrome also included an ATP regenerating system consisting of 10 mM creatine phosphate and 50 μg/ml creatine kinase. In control reactions, DMSO was used in place of the inhibitor. Reactions with DNA2 alone were incubated at 30 °C, and those with DNA2-Bloom syndrome-Replication protein A and EXO1 were incubated at 37 °C for the indicated times. […] Gels were dried onto DEAE paper on top of Whatman filter paper (GE, Issaquah, WA, USA) and then analyzed in a BioRad Personal Molecular Imager FX phosphorimager. Band intensity was quantified using Image Lab software (Bio-Rad, Hercules, CA, USA). The fraction of DNA substrate digested was determined by measuring the amount of substrate remaining and normalizing to the total substrate in the negative control lane containing no protein.
Figure S2. […] (b) Plots showing quantitation of the experiments shown in a. […] (d) Plots showing quantitation of the experiments shown in c. […] (f) Plot showing quantitation of the experiment in e. […]

| Structure (SMILES) | Effect on ATPase activity of DNA2 (hDNA2 [1]) | 5′ flap processing by hDNA2 (hDNA2 [2]) |
| --- | --- | --- |
| NC1=C(Br)C(=O)c2ncccc2C1=O [NSC-105808, 6-amino-7-bromoquinoline-5,8-dione] | do not affect; also recorded: no effect | inhibited |
| O=C1C(=O)c2cc([N+](=O)[O-])ccc2-c2ccccc21 [NSC-5195242, 2-nitrophenanthrene-9,10-dione] | do not affect | inhibited |
